Columns and labels:
Assay type in all cases: in vivo
[1] = system: Ba/F3-EpoR-JAK2^V617F cells; test: Spleen weight at study endpoint in mouse MPN model
Procedure: (§1) The combination of Compound A, Compound B and Compound C was examined in a mouse model of MPN. In this model, Ba/F3 cells harbored Epo Receptor and JAK2 V617F mutations. Ba/F3-EpoR-JAK2^V617F was engineered with a luciferase tag for experimental imaging. Female SCID/Beige mice were inoculated with 1x10e6 Ba/F3-EpoR-JAK2^V617F cells through the tail vein. […] Additionally, JAK2V617F allele burden, defined as the relative ratio of JAK2V617F over wild type JAK2, is measured by taqman in PBMCs at study endpoint.
(§2) In the first experiment, disease-bearing mice were randomized into treatment cohorts, based on the disease burden. Mice were treated with vehicle, Compound B at 75 mg/kg, by oral gavage (PO) daily (QD), Compound A at 60 mg/kg, PO, twice daily (BID) and the combination of both agents. At study endpoint, spleen weight from each of the study cohorts was obtained. Relative change in the spleen weight was calculated by normalizing individual spleen weight against the mean spleen weight of the cohort receiving vehicle treatment.
In the second experiment, disease-bearing mice were randomized into treatment cohort, based on the disease burden. Mice were treated with vehicle, Compound A at 60 mg/kg, PO, twice daily (BID), and the triple combination of Compound A, Compound B (at 75 mg/kg, QD, PO) and Compound C (at 25 mg/kg, QD, PO). At study endpoint, spleen weight from each of the study cohorts was obtained. Relative spleen weight was calculated by normalizing individual spleen weight against the mean spleen weight of the cohort receiving vehicle treatment.

[2] = system: Ba/F3-EpoR-JAK2^V617F cells; test: Total tumor load (bioluminescence, IVIS xenogen) in mouse MPN model; conditions: study endpoint; for reduction of total tumor load (level of bioluminescence) relative to the vehicle control: first experiment, FIG. 1, Compound A 60 mg/kg PO BID, Compound B 75 mg/kg PO QD, alone or combined, SCID/Beige mice
Source text: The combination of Compound A, Compound B and Compound C was examined in a mouse model of MPN. In this model, Ba/F3 cells harbored Epo Receptor and JAK2 V617F mutations. Ba/F3-EpoR-JAK2^V617F was engineered with a luciferase tag for experimental imaging. Female SCID/Beige mice were inoculated with 1x10e6 Ba/F3-EpoR-JAK2^V617F cells through the tail vein. Total tumor load was monitored with IVIS xenogen technology. It is defined as the sum of dorsal and ventral photon signal.
In the first experiment, disease-bearing mice were randomized into treatment cohorts, based on the disease burden. Mice were treated with vehicle, Compound B at 75 mg/kg, by oral gavage (PO) daily (QD), Compound A at 60 mg/kg, PO, twice daily (BID) and the combination of both agents.
In the second experiment, disease-bearing mice were randomized into treatment cohort, based on the disease burden. Mice were treated with vehicle, Compound A at 60 mg/kg, PO, twice daily (BID), and the triple combination of Compound A, Compound B (at 75 mg/kg, QD, PO) and Compound C (at 25 mg/kg, QD, PO).

JAK2V617F allele burden = JAK2V617F allele burden in PBMC (taqman) at study endpoint in mouse MPN model; conditions: second experiment, FIG. 6, Compound A 60 mg/kg PO BID alone or with Compound B 75 mg/kg QD PO and Compound C 25 mg/kg QD PO
Procedure: as §1, §2
In the second experiment, disease-bearing mice were randomized into treatment cohort, based on the disease burden. […] Relative spleen weight was calculated by normalizing individual spleen weight against the mean spleen weight of the cohort receiving vehicle treatment.

[3] = first experiment, FIG. 2, Compound A 60 mg/kg PO BID, Compound B 75 mg/kg PO QD, alone or combined

Row | Compound | reduction of spleen weight relative to that of the vehicle control [1, 3] [%] | reduction of total tumor load (level of bioluminescence) relative to the vehicle control [2] [%] | reduction of spleen weight relative to that of the vehicle control ([1]; second experiment, FIG. 5, Compound A 60 mg/kg PO BID alone or with Compound B 75 mg/kg QD PO and Compound C 25 mg/kg QD PO) [%] | down-modulation of JAK2V617F allele burden (JAK2V617F allele burden) [%] | reduction of total tumor load (level of bioluminescence) ([2]; second experiment, FIG. 4, Compound A 60 mg/kg PO BID alone or with Compound B 75 mg/kg QD PO and Compound C 25 mg/kg QD PO) [%]
1 | CN(C)C(=O)c1cc2cnc(Nc3ccc(N4CCNCC4)cn3)nc2n1C1CCCC1 [Compound B, 7-Cyclopentyl-2-(5-piperazin-1-yl-pyridin-2-ylamino)-7H-pyrrolo[2,3-d]pyrimidine-6-carboxylic acid dimethylamide] | ~38 | ~77 | – | – | –
2 | N#CC[C@H](C1CCCC1)n1cc(-c2ncnc3[nH]ccc23)cn1 [Compound A, (3R)-3-cyclopentyl-3-[4-(7H-pyrrolo[2,3-d]pyrimidin-4-yl)pyrazol-1-yl]propanenitrile] | ~62 | ~79 | ~53 | ~15 | ~70

From patent publication US20180071296A1, “COMBINATION THERAPY COMPRISING AN INHIBITOR OF JAK, CDK, AND PIM” (Novartis AG, priority 2013, published 2018)
